Reference: PubChem BioAssay (NCI)
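Assay format: 96-well plates, 48-hour exposure. At the TGI there is no net growth.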

Experiments:
Assay in all cases: NCI anticancer screen, dose series, 48 h
SK-MEL-5 melanoma = test system: SK-MEL-5 melanoma
A498 renal = test system: A498 renal
HOP-62 NSCLC = test system: HOP-62 NSCLC
OVCAR-3 ovarian = test system: OVCAR-3 ovarian
TK-10 renal = test system: TK-10 renal
OVCAR-4 ovarian = test system: OVCAR-4 ovarian
K-562 leukemia = test system: K-562 leukemia
MOLT-4 leukemia = test system: MOLT-4 leukemia
RXF 393 renal = test system: RXF 393 renal
SF-295 CNS = test system: SF-295 CNS
HS 578T breast = test system: HS 578T breast
HCC-2998 colon = test system: HCC-2998 colon
NCI-H226 lung = test system: NCI-H226 lung
OVCAR-8 ovarian = test system: OVCAR-8 ovarian
UACC-257 melanoma = test system: UACC-257 melanoma
HT29 colon = test system: HT29 colon
NCI/ADR-RES ovarian = test system: NCI/ADR-RES ovarian
DU-145 prostate = test system: DU-145 prostate
UACC-62 melanoma = test system: UACC-62 melanoma
SNB-19 CNS = test system: SNB-19 CNS
HCT-15 colon = test system: HCT-15 colon
NCI-H522 lung = test system: NCI-H522 lung
ACHN renal = test system: ACHN renal
NCI-H23 lung = test system: NCI-H23 lung
T-47D breast = test system: T-47D breast
U251 CNS = test system: U251 CNS
UO-31 renal = test system: UO-31 renal
HCT-116 colon = test system: HCT-116 colon
SF-268 CNS = test system: SF-268 CNS
MDA-N = test system: MDA-N
MDA-MB-231 breast = test system: MDA-MB-231 breast
HOP-92 NSCLC = test system: HOP-92 NSCLC
KM12 colon = test system: KM12 colon
M14 melanoma = test system: M14 melanoma
SW-620 colon = test system: SW-620 colon
A549 NSCLC = test system: A549 NSCLC
MALME-3M melanoma = test system: MALME-3M melanoma
MDA-MB-435 = test system: MDA-MB-435
SR leukemia = test system: SR leukemia
IGROV1 ovarian = test system: IGROV1 ovarian
RPMI-8226 leukemia = test system: RPMI-8226 leukemia
786-0 renal = test system: 786-0 renal
SK-MEL-2 melanoma = test system: SK-MEL-2 melanoma
SK-OV-3 ovarian = test system: SK-OV-3 ovarian
CCRF-CEM leukemia = test system: CCRF-CEM leukemia
SF-539 CNS = test system: SF-539 CNS
SNB-75 CNS = test system: SNB-75 CNS
CAKI-1 renal = test system: CAKI-1 renal
SN12C renal = test system: SN12C renal
MCF7 breast = test system: MCF7 breast
EKVX NSCLC = test system: EKVX NSCLC
LOX IMVI melanoma = test system: LOX IMVI melanoma
SK-MEL-28 melanoma = test system: SK-MEL-28 melanoma
COLO 205 colon = test system: COLO 205 colon
OVCAR-5 ovarian = test system: OVCAR-5 ovarian
NCI-H460 lung = test system: NCI-H460 lung
BT-549 breast = test system: BT-549 breast
PC-3 prostate = test system: PC-3 prostate
HL-60(TB) leukemia = test system: HL-60(TB) leukemia

CCc1n[nH]c(=O)n1-c1ccc2ccccc2c1
TGI (SK-MEL-5 melanoma): > 100 µM | TGI (A498 renal): > 100 µM | TGI (HOP-62 NSCLC): > 100 µM | TGI (OVCAR-3 ovarian): > 100 µM | TGI (TK-10 renal): > 100 µM | TGI (OVCAR-4 ovarian): > 100 µM | TGI (K-562 leukemia): > 100 µM | TGI (MOLT-4 leukemia): > 100 µM | TGI (RXF 393 renal): > 100 µM | TGI (SF-295 CNS): > 100 µM | TGI (HS 578T breast): > 100 µM | TGI (HCC-2998 colon): > 100 µM | TGI (NCI-H226 lung): > 100 µM | TGI (OVCAR-8 ovarian): > 100 µM | TGI (UACC-257 melanoma): > 100 µM | TGI (HT29 colon): > 100 µM | TGI (NCI/ADR-RES ovarian): > 100 µM | TGI (DU-145 prostate): > 100 µM | TGI (UACC-62 melanoma): > 100 µM | TGI (SNB-19 CNS): > 100 µM | TGI (HCT-15 colon): > 100 µM | TGI (NCI-H522 lung): > 100 µM | TGI (ACHN renal): > 100 µM | TGI (NCI-H23 lung): > 100 µM | TGI (T-47D breast): > 100 µM | TGI (U251 CNS): > 100 µM | TGI (UO-31 renal): > 100 µM | TGI (HCT-116 colon): > 100 µM | TGI (SF-268 CNS): > 100 µM | TGI (MDA-N): > 100 µM | TGI (MDA-MB-231 breast): > 100 µM | TGI (HOP-92 NSCLC): > 100 µM | TGI (KM12 colon): > 100 µM | TGI (M14 melanoma): > 100 µM | TGI (SW-620 colon): > 100 µM | TGI (A549 NSCLC): > 100 µM | TGI (MALME-3M melanoma): > 100 µM | TGI (MDA-MB-435): > 100 µM | TGI (SR leukemia): > 100 µM | TGI (IGROV1 ovarian): > 100 µM | TGI (RPMI-8226 leukemia): > 100 µM | TGI (786-0 renal): > 100 µM | TGI (SK-MEL-2 melanoma): > 100 µM | TGI (SK-OV-3 ovarian): > 100 µM | TGI (CCRF-CEM leukemia): > 100 µM | TGI (SF-539 CNS): > 100 µM | TGI (SNB-75 CNS): > 100 µM | TGI (CAKI-1 renal): > 100 µM | TGI (SN12C renal): > 100 µM | TGI (MCF7 breast): > 100 µM | TGI (EKVX NSCLC): > 100 µM | TGI (LOX IMVI melanoma): > 100 µM | TGI (SK-MEL-28 melanoma): > 100 µM | TGI (COLO 205 colon): > 100 µM | TGI (OVCAR-5 ovarian): > 100 µM | TGI (NCI-H460 lung): > 100 µM

N#CC(c1ccccc1)N(CCOCCOCCN(C(=O)c1ccccc1)C(C#N)c1ccccc1)C(=O)c1ccccc1 (stereo unspecified)
TGI (SK-MEL-5 melanoma): > 100 µM | TGI (A498 renal): > 100 µM | TGI (OVCAR-3 ovarian): > 100 µM | TGI (TK-10 renal): > 100 µM | TGI (OVCAR-4 ovarian): > 100 µM | TGI (K-562 leukemia): > 100 µM | TGI (MOLT-4 leukemia): > 100 µM | TGI (RXF 393 renal): > 100 µM | TGI (SF-295 CNS): > 100 µM | TGI (HS 578T breast): > 100 µM | TGI (HCC-2998 colon): > 100 µM | TGI (NCI-H226 lung): > 100 µM | TGI (OVCAR-8 ovarian): > 100 µM | TGI (UACC-257 melanoma): > 100 µM | TGI (HT29 colon): > 100 µM | TGI (NCI/ADR-RES ovarian): > 100 µM | TGI (DU-145 prostate): > 100 µM | TGI (UACC-62 melanoma): > 100 µM | TGI (SNB-19 CNS): > 100 µM | TGI (HCT-15 colon): > 100 µM | TGI (ACHN renal): > 100 µM | TGI (NCI-H23 lung): > 100 µM | TGI (T-47D breast): 67.4 µM | TGI (U251 CNS): > 100 µM | TGI (UO-31 renal): > 100 µM | TGI (HCT-116 colon): > 100 µM | TGI (SF-268 CNS): > 100 µM | TGI (MDA-N): > 100 µM | TGI (BT-549 breast): > 100 µM | TGI (MDA-MB-231 breast): > 100 µM | TGI (HOP-92 NSCLC): > 100 µM | TGI (KM12 colon): > 100 µM | TGI (M14 melanoma): > 100 µM | TGI (SW-620 colon): > 100 µM | TGI (A549 NSCLC): > 100 µM | TGI (MALME-3M melanoma): > 100 µM | TGI (MDA-MB-435): > 100 µM | TGI (IGROV1 ovarian): > 100 µM | TGI (786-0 renal): > 100 µM | TGI (SK-MEL-2 melanoma): > 100 µM | TGI (PC-3 prostate): > 100 µM | TGI (SK-OV-3 ovarian): > 100 µM | TGI (CCRF-CEM leukemia): > 100 µM | TGI (SF-539 CNS): > 100 µM | TGI (HL-60(TB) leukemia): > 100 µM | TGI (SNB-75 CNS): > 100 µM | TGI (CAKI-1 renal): > 100 µM | TGI (SN12C renal): > 100 µM | TGI (MCF7 breast): > 100 µM | TGI (EKVX NSCLC): > 100 µM | TGI (LOX IMVI melanoma): > 100 µM | TGI (SK-MEL-28 melanoma): > 100 µM | TGI (COLO 205 colon): > 100 µM | TGI (OVCAR-5 ovarian): > 100 µM | TGI (NCI-H460 lung): > 100 µM
